Measured values: PMC10532587, “An Investigation of Structure–Activity Relationships and Cell Death Mechanisms of the Marine Alkaloids Discorhabdins in Merkel Cell Carcinoma Cells” (Marine Drugs, 2023)
Like-named read-outs stand apart in the source and are kept apart here.

How the values were obtained:
[1] = tested on: HaCaT; experiment: Cell survival by CellTiterGlo, control cells; format: cell-based, human; details: for AUC (arbitrary units) HaCaT: area under the dose-response curve, control cells; for IC50: Homo sapiens, HaCaT
[2] = tested on: MCC13; experiment: Cell survival by CellTiterGlo, VN-MCC line MCC13; format: cell-based; details: for AUC (arbitrary units) MCC13: area under the dose-response curve; for IC50: CellTiterGlo, normalized to DMSO
[3] = tested on: MCC26; experiment: Cell survival by CellTiterGlo, VN-MCC line MCC26; format: cell-based; details: for AUC (arbitrary units) MCC26: area under the dose-response curve; for IC50: CellTiterGlo, normalized to DMSO
[4] = tested on: UISO; experiment: Cell survival by CellTiterGlo, VN-MCC line UISO; format: cell-based; details: for AUC (arbitrary units) UISO: area under the dose-response curve; for IC50: CellTiterGlo, normalized to DMSO
[5] = tested on: MKL-1; experiment: Cell survival by CellTiterGlo, VP-MCC line MKL-1; format: cell-based; details: VP-MCC; for AUC (arbitrary units) MKL-1: area under the dose-response curve; for IC50: MKL-1, CellTiterGlo, normalized to DMSO, read-out: IC50 (nM) MKL-1
[6] = tested on: MKL-2; experiment: Cell survival by CellTiterGlo, VP-MCC line MKL-2; format: cell-based; details: for AUC (arbitrary units) MKL-2: area under the dose-response curve; for IC50: CellTiterGlo, normalized to DMSO
[7] = tested on: Waga; experiment: Cell survival by CellTiterGlo, VP-MCC line Waga; format: cell-based; details: for AUC (arbitrary units) WaGa: area under the dose-response curve; for IC50: CellTiterGlo, normalized to DMSO
[8] = tested on: control (HaCaT) and Merkel cell carcinoma cell lines; experiment: Cell survival by CellTiterGlo, all seven cell lines; format: cell-based; details: for IC50: Homo sapiens, HaCaT; for activity on cell viability, in words: MCC and control cell lines
Method: (§1) Three methods were employed for assessment of MCC and control cell survival/viability after discorhabdin treatment, two metabolic assays and a cell permeability assay. For all three methods, cells were plated in 384-well plates at 2500 cells/well and treated with various concentrations of discorhabdins for various time periods. CellTiterGlo^TM (Promega, Madison, WI, USA) measures cellular ATP content and was used to estimate potency of discorhabdins in cell viability assays as previously described. Continuous monitoring of metabolic activity was accomplished using a cellular reducing potential luminescence assay, the RealTime-Glo^TM MT Cell Viability Assay (Promega, Madison, WI, USA) according to manufacturer’s instructions. Loss of cell plasma membrane integrity was assessed using a cell-impermeant molecule that becomes fluorescent upon binding DNA [82] in parallel with apoptosis detection per manufacturer’s instructions (RealTimeGlo^TM Annexin V Apoptosis and Necrosis Assay-Promega). Two additional assays of apoptotic cell death were also used. Caspase activation in response to treatment of MCC cells by discorhabdins or bortezomib (as a positive control) was measured using the CaspaseGlo® 3/7 Assay (Promega, Madison, WI, USA) according to the manufacturer’s instructions at multiple time points. Inhibition of apoptotic cell death was investigated using pre-treatment of cells with for 1 h with the pan-caspase inhibitor Z-VAD-FMK (Enzo Life Sciences, Farmingdale, NY, USA) followed by treatment with discorhabdins or bortezomib and estimation of cell viability as outlined above.
(§2) In order to compare responses among all of the discorhabdins and cell lines (98 combinations), dose–response curves were generated using identical discorhabdin dilution series. GraphPad Prism 8 (San Diego, CA, USA) software was utilized to graph dose–response data and to calculate IC50 values and area under the dose–response curves (AUC) along with 95% confidence interval estimates using four-parameter logistic nonlinear regression analysis. For further analysis and comparisons, AUC for each cell line/discorhabdin pair was visualized in a heatmap generated in R version 1.3.1073 (R Core Team (2013). R: A language and environment for statistical computing. R Foundation for Statistical Computing, Vienna, Austria, http://www.R-project.org/ (accessed on 12 January 2023).
Figure S39: Activity of discorhabdins against M CC cell lines.
The indicated discorh abd ins were ass essed for th eir ability to affect surviv al of control (H aCaT) and Merkel cell carcino ma cell lines (VN-MCC: MCC13, MCC26, UISO and VP -MCC: MKL-1, MKL-2, Wag a). Cells were plat ed at 2500 cells/well and compounds the next day. Cell survival was estimated by CellTiterGlo (normalized to untreated (DMSO) cells on the same plate). Structures w ere o btained from the supplier and/or the PubChem database or as described in the text. Number in bold in ( ) refers to structures in Figure 1 in the text. Curves were plotted and IC50 values and 95% confidence interval calculated by GraphPad software. […]

[9] = tested on: MCC cell lines; experiment: Cell survival by CellTiterGlo, MCC cell lines together; format: cell-based; details: average over MCC cell lines
Method: as §1, §2

[10] = tested on: VN-MCC cell lines (MCC13, MCC26, and UISO); experiment: Selectivity VN-MCC versus control cells (average AUC); format: cell-based
Description: as §2
(§3) Figure S41: Discorhabdi nselectivity
(§4) Discorhabdin selectivity for VP -MCC and VN- MCCcells was estimated by comparison of activity (average AUC) for each dis corhabdin against VP -MCC (panel A) or VN- MCC (panel B) cell lines compared to control cells . Discorhabdins were sort ed by selectivity from most to least selective. - fold dif fer ence = (av e VN -MCC or VP -MCC AUC/ control AUC). Error bars […]
(§5) (1 picture or pasted object on this page, not shown here)

[11] = tested on: VP-MCC cell lines (MKL-1, MKL-2, and Waga); experiment: Selectivity VP-MCC versus control cells (average AUC); format: cell-based
Description: as §2, §3, §4, §5

[12] = control skin cell line, CellTiterGlo, normalized to DMSO, read-out: IC50 (nM) HaCaT
[13] = read-out: IC50 for control cells

Compound	AUC (arbitrary units) HaCaT [1]	AUC (arbitrary units) MCC13 [2]	AUC (arbitrary units) MCC26 [3]	AUC (arbitrary units) UISO [4]	AUC (arbitrary units) MKL-1 [5]	AUC (arbitrary units) MKL-2 [6]	AUC (arbitrary units) WaGa [7]	IC50 [1, 12]	IC50 [2]	IC50 [3]	IC50 [4]	IC50 [5]	IC50 [6]	IC50 [7]	averaged potency (IC50) across all MCC cell lines tested [9]	increased activity against VP-MCC compared to the control [11]	activity on cell viability, in words [8]	also measured
Cn1cnc(S[C@H]2[C@H]3C(=O)C=C4S[C@H]5C[C@]42C2=C(N5)C(=O)c4[nH]cc5c4C2=[N+]3CC5)c1C[C@H](N)C(=O)O (relative stereo) [Compound 14, (−)-(1R,2R,6R,8S,7′S*) discorhabdin H]	992.5 arbitrary units	950.6 arbitrary units	947 arbitrary units	952.3 arbitrary units	901.7 arbitrary units	946.5 arbitrary units	930 arbitrary units											IC50 ([8]; CellTiterGlo, 10 µM highest concentration tested, read-out: IC50, all cell lines): > 10000 nM; IC50 ([8]; essentially inactive compounds, read-out: average IC50 against all the cell lines): > 5000 nM
O=C1C=C[C@@]23C[C@@H](NC4=C2C2=NCCc5c[nH]c(c52)C4=O)SC3=C1 [Compound 4, (+)-(6S,8S) discorhabdin G*/I]	267.7 arbitrary units	124.8 arbitrary units	140 arbitrary units	121.7 arbitrary units	54.17 arbitrary units	108.8 arbitrary units	105.3 arbitrary units	2450 nM	940 nM	1280 nM	921 nM	481 nM	879 nM	859 nM	sub-micromolar			
O=C1C(Br)=CC2(C=C1Br)CCNC1=C2C2=NCCc3c(Br)[nH]c(c32)C1=O [Compound 19, 14-bromodiscorhabdin C]	441.7 arbitrary units	90.22 arbitrary units	120.6 arbitrary units	88.25 arbitrary units	7.189 arbitrary units		50.51 arbitrary units	3740 nM	511 nM	893 nM	412 nM	37.8 nM		249 nM	sub-micromolar	> 10 fold		increased activity against VN-MCC compared to control cells (fold difference) [10]: > 3 fold
Cc1[nH]c2c3c1CCN=C3C1=C(NCCC13C=C(Br)C(=O)C(Br)=C3)C2=O [Compound 18, 14-methyldiscorhabdin C]	584.7 arbitrary units	159.8 arbitrary units	329.4 arbitrary units	74.19 arbitrary units	20.95 arbitrary units		51.75 arbitrary units	5380 nM	1450 nM	3060 nM	670 nM	175 nM		430 nM		> 10 fold		increased activity against VN-MCC compared to control cells (fold difference) [10]: > 3 fold
O=C1C=C(SSC2=CC(=O)C(Br)=C[C@]23C=CNC2=C3C3=NCCc4c[nH]c(c43)C2=O)[C@@]2(C=CNC3=C2C2=NCCc4c[nH]c(c42)C3=O)C=C1Br [Compound 10, (−)-(6S,6′S) discorhabdin W]	538.3 arbitrary units	184.2 arbitrary units	290.1 arbitrary units	162.4 arbitrary units	18.4 arbitrary units	55.04 arbitrary units	40.16 arbitrary units	4860 nM	1380 nM	2560 nM	1240 nM	136 nM	387 nM	307 nM		> 10 fold		
CSC1=CC(=O)C(Br)=C[C@]12C=CNC1=C2C2=NCCc3c[nH]c(c32)C1=O [Compound 8, (+)-(6S) N-13-demethyldiscorhabdin U]	123.3 arbitrary units	48.65 arbitrary units	80.16 arbitrary units	32.84 arbitrary units	5.221 arbitrary units		14.83 arbitrary units	1010 nM	299 nM	749 nM	251 nM	22.7 nM		86.9 nM	sub-micromolar	> 10 fold	one of the most active compounds tested	IC50 [1, 13]: ≤ 1000 nM
O=C1C=C2SC3CC2(C=C1Br)C1=C(N3)C(=O)c2[nH]cc3c2C1=NCC3 (single isomer, unassigned; (-)) [(-)B]	114.3 arbitrary units	41.45 arbitrary units	80.18 arbitrary units	33.26 arbitrary units	1.929 arbitrary units	9.451 arbitrary units	5.814 arbitrary units										comparable activity against MCC and control cell lines	
O=C1CC2SC3CC2(C=C1Br)C1=C(N3)C(=O)c2[nH]cc3c2C1=NCC3 (single isomer, unassigned; (+)) [Compound 1]	29.87 arbitrary units	8.589 arbitrary units	88.19 arbitrary units	7.172 arbitrary units	4.944 arbitrary units	6.99 arbitrary units	6.873 arbitrary units	273 nM	64 nM	197 nM	54 nM	29 nM	48 nM	57 nM	sub-micromolar		most generally toxic compound tested	IC50 [1, 13]: ≤ 1000 nM
O=C1C=C[C@]2(C=C1Br)CCNC1=C2C2=NCCc3c[nH]c(c32)C1=O [Compound 22, (+)-(6S)-discorhabdin E]	328.3 arbitrary units	106.9 arbitrary units	226.2 arbitrary units	53.3 arbitrary units	14.16 arbitrary units		36.75 arbitrary units	3010 nM	888 nM	2000 nM	459 nM	125 nM		332 nM	sub-micromolar	> 10 fold		
